molecular target: hMC4R (Homo sapiens (Human), UniProt P32245); assay: In vitro binding affinity assay using hMC4R (radioligand competition binding, CHO cell membranes); conditions: competition with [125I]-(Nle4, D-Phe7)-α-MSH 0.5 nM; Ki from IC50 by Cheng-Prusoff; read-out: Ki (nM) geometric mean
Method: The binding affinity of test compounds at the α-melanocyte-stimulating hormone receptor (hMC4R) was assessed using a radioligand competition binding assay. Recombinant Chinese hamster ovaries (CHO) cells stably expressing hMC4R (PerkinElmer #ES-191-C) were used for competitive binding. hMC4R membranes were grown in Dulbecco's Modified Essential Medium and Ham's F-12 Medium (DMEM/F12), 10% heat inactivated fetal bovine serum (FBS), 0.4 mg/mL Geneticin and 2 mM L-glutamine. Cell membranes were bulked and frozen until the assay was performed.
Compounds were solubilized in 100% dimethyl sulfoxide (DMSO) to a concentration of 30 mM. A 10-point intermediate dilution series using half log dilutions was created in 100% DMSO with a top concentration of 0.03 mM. The serially diluted compounds were spotted as 1 μL/well, in 96-well Costar 3363 plates. The final compound range in the assay was 300 nM to 0.01 nM with a final DMSO concentration of 1%. Control wells, containing 1 μL of 2 mM ([…]) alpha-melanocyte stimulating hormone (α-MSH-Tocris #2584) was added to the non-specific binding wells and 1 μL 100% DMSO for the total binding control wells. This was followed by the addition of 80 μL of assay buffer [25 mM HEPES, 5 mM MgCl2, 2.5 mM CaCl2, 150 mM NaCl, Complete EDTA-free Protease Inhibitor Tablet (Thermo Scientific #11873580001) and 0.25% BSA]. […] The exact concentration of radioligand used for each experiment was determined by liquid scintillation counting and adjusted if necessary.
Frozen hMC4R cell membranes were thawed and Dounce homogenized. Homogenates were resuspended in assay buffer to a concentration of 2 μg per well. […] The plates were incubated for 2 hours at room temperature. Assay samples were then rapidly filtered through Unifilter-96 GF/B PEI coated filter plates using a filter plate harvester (PerkinElmer) and rinsed with ice-cold wash buffer [25 mM (4-(2-hydroxyethyl)-1-piperazineethanesulfonic acid (HEPES), 1 mM MgCl2, 2.5 mM CaCl2, and 500 mM NaCl]. Filter plates were dried overnight at room temperature. Plates were then bottom-sealed prior to the addition of 50 μL/well Ultima Gold XR scintillation fluid (PerkinElmer 6013111). Plates were then top-sealed, incubated for 60 minutes at room temperature and then the amount of radioactivity present was determined by liquid scintillation counting on a Microbeta Trilux (PerkinElmer #2450-0060).
The raw data (expressed as counts per minute) were analyzed using ActivityBase (IDBS Data Management Software). […] Equilibrium dissociation constant for inhibitor of ligand and receptor interaction (Ki) values were then calculated from the IC50 values using the Cheng-Prusoff equation: Ki=IC50/(1+([L]/Kd)), where [L] is the concentration of the radioligand used in the experiment and Kd is the affinity of the radioligand (determined in separate saturation experiments).

Sequence of hMC4R (P32245 whole entry): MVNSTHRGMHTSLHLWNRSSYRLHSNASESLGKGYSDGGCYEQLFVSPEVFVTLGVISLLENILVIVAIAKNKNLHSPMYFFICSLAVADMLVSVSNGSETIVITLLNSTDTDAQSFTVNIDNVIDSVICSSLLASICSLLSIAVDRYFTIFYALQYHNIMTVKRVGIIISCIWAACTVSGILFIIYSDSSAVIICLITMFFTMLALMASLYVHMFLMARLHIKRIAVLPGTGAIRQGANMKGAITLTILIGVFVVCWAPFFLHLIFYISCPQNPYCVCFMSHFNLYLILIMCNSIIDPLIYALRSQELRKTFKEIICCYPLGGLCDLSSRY

Row | Ki [nM] | Compound
1 | 7.7 | COc1cc([C@@H](C)C(=O)N2CC[C@H](Nc3ccc(-c4cn(C)c(C(F)F)n4)c(C)n3)C2)cc(OC)n1 (single isomer, unassigned) [Example 12B]
2 | 530 | COc1cccc([C@@H](C)C(=O)N2CC[C@H](Nc3ccc(-c4cn(C)c(C(C)(F)F)n4)c(C)n3)C2)c1 (single isomer, unassigned) [Example 14A]
3 | 150 | Cc1ccccc1[C@@H](C)C(=O)N1CC[C@H](Nc2ccc(-c3cn(C)c(C(C)(F)F)n3)c(C)n2)C1 (single isomer, unassigned) [Example 15A]
4 | 0.83 | Cc1ccccc1[C@@H](C)C(=O)N1CC[C@H](Nc2ccc(-c3cn(C)c(C(C)(F)F)n3)c(C)n2)C1 (single isomer, unassigned) [Example 15B]
5 | > 220 | COc1cc([C@@H](C)C(=O)N2CC[C@H](Nc3ccc(-c4cn(C)c(C(C)(F)F)n4)c(C)n3)C2)c(C)cn1 (single isomer, unassigned) [Example 16A]
6 | 1100 | COc1ccc(C)c([C@@H](C)C(=O)N2CC[C@H](Nc3ccc(-c4cn(C)cn4)c(C)n3)C2)c1 (single isomer, unassigned) [Example 20A]
7 | 190 | COc1cc([C@@H](C)C(=O)N2CC[C@H](Nc3ccc(-c4cn(C)c(C(C)(F)F)n4)c(C)n3)C2)c(F)cn1 (single isomer, unassigned) [Example 21A]
8 | 20 | COc1cc([C@@H](C)C(=O)N2CC[C@H](Nc3ccc(-c4nc(C(F)F)n(C)n4)c(C)n3)C2)c(Cl)cn1 (single isomer, unassigned) [Example 24A]
9 | 88 | COc1cc([C@@H](C)C(=O)N2CC[C@H](Nc3ccc(-c4nc(C(F)(F)F)n(C)n4)c(C)n3)C2)c(Cl)cn1 (single isomer, unassigned) [Example 25A]
10 | 1100 | COc1cc([C@@H](C)C(=O)N2CC[C@H](Nc3ccc(-c4nc(C(F)F)n(C)n4)c(C)n3)C2)ccn1 (single isomer, unassigned) [Example 33A]
11 | 4.3 | COc1cc([C@](C)(F)C(=O)N2CC[C@H](Nc3ccc(-c4cn(C)c(C(F)F)n4)c(C)n3)C2)ccn1 (single isomer, unassigned) [Example 36B]
12 | 150 | COc1cc([C@@H](C)C(=O)N2CC[C@H](Nc3ccc(-c4nc(C(C)(F)F)n(C)n4)c(C)n3)C2)c(Cl)cn1 (single isomer, unassigned) [Example 37A]
13 | 62 | COc1cc([C@@H](C)C(=O)N2CC[C@H](Nc3ccc(-c4cn(C)c(C(F)F)n4)c(C)n3)C2)c(F)cn1 (single isomer, unassigned) [Example 38A]
14 | 54 | COc1cc(OC(F)F)cc([C@@H](C)C(=O)N2CC[C@H](Nc3ccc(-c4nc(C(C)(F)F)n(C)n4)c(C)n3)C2)c1 (single isomer, unassigned) [Example 40A]
15 | 240 | COc1cc([C@@H](C)C(=O)N2CC[C@H](Nc3ccc(-c4nc(C(F)F)n(C)n4)c(C)n3)C2)nc(C)n1 (single isomer, unassigned) [Example 41A]
16 | 520 | Cc1nc(N[C@@H]2CCN(C(=O)Cc3ccc(F)cc3)C2(C)C)ccc1-c1cn(C)cn1 [Example 3A, 1-[(3R)-2,2-dimethyl-3-{[6-methyl-5-(1-methyl-1H-imidazol-4-yl)pyridin-2-yl]amino}pyrrolidin-1-yl]-2-(4-fluorophenyl)ethan-1-one]
17 | 0.46 | Cc1nc(N[C@H]2CCN(C(=O)Cc3ccc(OC(F)(F)F)cc3)C2)ccc1-c1cn(C)c(C(F)F)n1 [Example 9, 1-[(3S)-3-({5-[2-(difluoromethyl)-1-methyl-1H-imidazol-4-yl]-6-methylpyridin-2-yl}amino)pyrrolidin-1-yl]-2-[4-(trifluoromethoxy)phenyl]ethan-1-one]
18 | 0.31 | Cc1nc(N[C@H]2CCN(C(=O)Cc3ccc(F)c(F)c3)C2)ccc1-c1cn(C)c(C(F)F)n1 [Example 10, 1-[(3S)-3-({5-[2-(difluoromethyl)-1-methyl-1H-imidazol-4-yl]-6-methylpyridin-2-yl}amino)pyrrolidin-1-yl]-2-(3,4-difluorophenyl)ethan-1-one]
19 | 1.1 | Cc1nc(N[C@H]2CCN(C(=O)[C@H](C)c3ccccc3)C2)ccc1-c1cn(C)c(C(F)F)n1 [Example 11, (2R)-1-[(3S)-3-({5-[2-(difluoromethyl)-1-methyl-1H-imidazol-4-yl]-6-methylpyridin-2-yl}amino)pyrrolidin-1-yl]-2-phenylpropan-1-one]
20 | 1.1 | Cc1nc(N[C@H]2CCN(C(=O)C(F)(F)c3ccc(Cl)cc3)C2)ccc1-c1cn(C)c(C(F)F)n1 [Example 23, 2-(4-chlorophenyl)-1-[(3S)-3-({5-[2-(difluoromethyl)-1-methyl-1H-imidazol-4-yl]-6-methylpyridin-2-yl}amino)pyrrolidin-1-yl]-2,2-difluoroethan-1-one]
21 | 950 | Cc1nc(N[C@H]2CCN(C(=O)Cc3ccc(F)cc3)C2)ccc1-c1noc(C(F)(F)F)n1 [Example 27, 2-(4-fluorophenyl)-1-[(3S)-3-({6-methyl-5-[5-(trifluoromethyl)-1,2,4-oxadiazol-3-yl]pyridin-2-yl}amino)pyrrolidin-1-yl]ethan-1-one]
22 | 6.9 | Cc1nc(N[C@H]2CCN(C(=O)Cc3ccc(F)cc3)C2)ccc1-c1nc2n(n1)CC(F)(F)CO2 [Example 29, 1-[(3S)-3-{[5-(6,6-difluoro-6,7-dihydro-5H-[1,2,4]triazolo[5,1-b][1,3]oxazin-2-yl)-6-methylpyridin-2-yl]amino}pyrrolidin-1-yl]-2-(4-fluorophenyl)ethan-1-one]
23 | 1 | COc1cc(CC(=O)N2CC[C@H](Nc3ccc(-c4cn(C)cn4)c(C)n3)C2)ccc1C [Example 31, 2-(3-methoxy-4-methylphenyl)-1-[(3S)-3-{[6-methyl-5-(1-methyl-1H-imidazol-4-yl)pyridin-2-yl]amino}pyrrolidin-1-yl]ethan-1-one]
24 | 5.5 | Cc1nc(N[C@H]2CCN(C(=O)Cc3ccc(F)cc3)C2)ccc1-c1cc(C)n(C)n1 [Example 32, 1-[(3S)-3-{[5-(1,5-dimethyl-1H-pyrazol-3-yl)-6-methylpyridin-2-yl]amino}pyrrolidin-1-yl]-2-(4-fluorophenyl)ethan-1-one]
25 | 0.88 | Cc1nc(N[C@H]2CCN(C(=O)C(F)(F)c3ccc(Cl)c(Cl)c3)C2)ccc1-c1cn(C)c(C(F)F)n1 [Example 34, 2-(3,4-dichlorophenyl)-1-[(3S)-3-({5-[2-(difluoromethyl)-1-methyl-1H-imidazol-4-yl]-6-methylpyridin-2-yl}amino)pyrrolidin-1-yl]-2,2-difluoroethan-1-one]
26 | 0.95 | Cc1nc(N[C@H]2CCN(C(=O)C3(c4ccccc4)CC3(F)F)C2)ccc1-c1cn(C)cn1 (stereo partly drawn) [Example 35, (2,2-difluoro-1-phenylcyclopropyl)[(3S)-3-{[6-methyl-5-(1-methyl-1H-imidazol-4-yl)pyridin-2-yl]amino}pyrrolidin-1-yl]methanone]
